These results are taken from EP0286418A1, “Anti-retroviral agents and delivery systems for the same” (priority 1987, dated 1988).

Series [1] can be described thus: capture / encapsulation volume of ddCTP liposomes. The class given is physicochemical. The procedure:
The amount of lipid in the preparation was determined from ¹⁴C counts (¹⁴C-cholesteryl oleate) in a standard beta counting scintillation fluid. The amount of ddCTP was assessed from the optical density at 280 nm. Samples for optical density reading were prepared by adding 0.9 ml of 65:25 chloroform ethanol solution to 0.5 ml of the sample. This eliminated light scatter that would otherwise have resulted from the presence of lipid particles. Negative staining electron microscopy was performed using glow-discharged formvar-carbon coated grids and sodium phosphotungstate. Release of ddCTP from liposomes was assessed by dialysis of samples against phosphate buffered saline. The integrity of ddCTP was assessed by high-performance gradient-elution anion exchange chromatography.
The amounts of lipid and ddCTP in the preparation were calculated from ¹⁴C and ³H counts, respectively. Encapsulation was generally in the range of 1.5 - 2 microliters/micromole EPC. The size distribution of liposomes was determined by quasi-elastic light-scattering (QELS) using an N4MD multiple-angle submicron particle size analyzer (Coulter, Hialeah, Fla., USA). […] The profile is substantially similar to that of a fresh preparation. The weight average diameter was about 215 nm with the coefficient of variation being about 100 nm.

For a further series, the system named is adherent human monocytes. In words: uptake of dideoxynucleotides. The class given is cell-based. The conditions noted are these: 37°C, drug 1 uM. As to the method: Uptake of ₃H-deoxyctidine triphosphate (³H-dCTP) was used as an indicator of the uptake of vesicle contents by cells. Uptake experiments were done by plating 5 × 10⁶ monocytes in each well of a 6-well microtiter plate (Costar) and adding reagents one or two days later. Incubations were done in DMEM-GG-FCS at 37°C. The rate of increase of dCTP content in the cells over a 9-hour period (Table 7) averaged 0.29 pmole/million cells/hr with liposomes containing 4 mM EPC. Other experiments established that ddCTP and ddCMP are not readily taken up by the cells (Table 9).

A short description of series [2]: leakage from liposomes at 4°C. Type of series: physicochemical. The conditions noted are these: liposomes of Example 1 or similar liposomes.
In the next series the test system is monocytes. Briefly: superoxide generation by monocytes. The class given is cell-based, Human. As to the method: Human peripheral blood mononuclear cells were obtained by standard procedures employing continuous flow cell separation (leukapheresis), such as described in Wahl, et al., Cellular Immunol. 85:373-383 (1984). The preparation was diluted in phosphate-buffered saline and layered onto gradients of Ficoll-Paque (Pharmacia-PL Biochemicals, Piscataway, N.J., USA). After centrifugation, mononuclear cells were pipetted from the interface, washed, and suspended in DMEM-GG-FCS. They were then fractionated by countercurrent centrifugal elutriation. The procedure comprises the Beckman elutriation system including a J-21 Beckman Centrifuge, a JE-6 elutriator rotor, a stroboscope, and a Masterflex pump and pumphead. The cells were loaded into the rotor and fractionated by elution at increasing flow rates. Fractions 7 and 8, highly enriched for monocytes, were pooled for use.

SMILES strings stand for the structures.

With `Nc1ccn([C@H]2CC[C@@H](COP(=O)(O)OP(=O)(O)OP(=O)(O)O)O2)c(=O)n1` [ddCTP, 2ʹ,3ʹ-dideoxycytidine-5ʹ-triphosphate], in series [1] (Example 1 liposomes (DPPC/DPPG/cholesterol)), the calculated capture is given as 2.6 microliters/micromole lipid. In addition, in series [1] (Example 2 liposomes (EPC/PS/cholesterol)), the Encapsulation is 1.5 - 2 microliters/micromole EPC. Besides, the “pmole drug/1 million cells (mean)” value in the series on adherent human monocytes (0. h) is on record as 0.15 pmole drug/1 million cells; in the series on adherent human monocytes (0.33 h), 0.09 pmole drug/1 million cells; in the series on adherent human monocytes (1.00 h), 0.09 pmole drug/1 million cells; with adherent human monocytes (3.00 h), 0.11 pmole drug/1 million cells; in the series with adherent human monocytes (6.00 h) it was 0.33 pmole drug/1 million cells; with adherent human monocytes (9.00 h) it was 0.43 pmole drug/1 million cells. Moreover, the “pmole drug/1 million cells (mean)” value with adherent human monocytes (20.00 h) is on record as 0.66 pmole drug/1 million cells. Besides, the “t1/2 for leakage from liposomes” value in series [2] was > 60 h. Moreover, the Superoxide in the series on monocytes (ddCTP 2.2 uM) is recorded as 1.21 (.02) nmoles/well; in the series with monocytes (ddCTP 11 uM) it was 0.85 (.04) nmoles/well; in the series with monocytes (ddCTP 56 uM), 0.77 (.04) nmoles/well; in the series with monocytes (ddCTP .0 uM), 1.19 (.06) nmoles/well; in the series with monocytes (ddCTP .018 uM) it was 1.33 (.05) nmoles/well; with monocytes (ddCTP .09 uM) it was 1.42 (.10) nmoles/well. Besides, in the series with monocytes (ddCTP .45 uM), the Superoxide is 1.33 (.08) nmoles/well.
